What was measured:
[1] = target: T1, Recombinant human IDO enzyme (IDO1 enzyme) (Homo sapiens, UniProt P14902); test: In vitro IDO enzymatic activity assay (kynurenine colour reaction, 492 nm); assay type: biochemical; settings: tested compound concentration 200 nM; recombinant human IDO1; read-out: IDO Enzymatic Inhibition Rate (%) (200 nM)
T1 construct: purchased BPS Bioscience, USA
Procedure: The basic principle of the in vitro IDO enzymatic activity detection is to use the IDO enzyme to metabolize the substrate L-tryptophan to produce the product kynurenine in an in vitro enzyme-catalyzed reaction system. The kynurenine is yellow in color reaction with p-dimethylaminobenzaldehyde in glacial acetic acid, and the absorbance value was measured at 492 nm on a microplate reader. The concentration of the product kynurenine in the sample is calculated by comparison to a standard curve of kynurenine with a known concentration.
Recombinant human IDO enzyme (IDO1 enzyme) was purchased from BPS Bioscience, USA.
(3) Control reactions were set up at the same time the detection reaction was carried out. including 0 inhibition positive control with no tested compound added and 0 enzyme negative control with no enzyme added. All tests were run in duplicate.
(4) After the enzymatic reaction was completed, 40 μl of a pre-formulated 30% (w/v) trichloroacetic acid solution was added, and reacted at 65° C. for 20 minutes, followed by centrifugation at 12,000 rpm for 15 minutes.
(5) 100 μl of the supernatant after centrifugation was pipetted and added to a 96-well plate. An equal volume of 2% p-dimethylaminobenzaldehyde in glacial acetic acid was added, well mixed, and allowed to stand at room temperature for 10 minutes.
(6) A microplate reader (ELX800NB) was used to detect the color signal of each well with a detection wavelength of 492 nm.
In addition, the enzymatic inhibition rates were calculated for the tested compounds of different concentration gradients, and then the enzymatic half maximal inhibitory concentration (IC50) was calculated using the IC50 calculator.
According to the above-mentioned method of experiment, the compound of the present disclosure was subjected to an in vitro IDO enzymatic IC50 assay using NLG919 as a positive control compound.

[2] = target: T2, IFN-γ-induced IDO enzyme in HeLa cells (Homo sapiens, UniProt P14902); test: Detection of IDO inhibitory activity at the cellular level (IFN-γ-induced HeLa cells); assay type: cell-based; settings: tested compound 1 μM, human IFN-γ 50 ng/ml, 48 hours, read-out: IDO Inhibitory Rate (%) (1 μM)
T2 construct: HeLa cells are human cervical cancer cell lines and can up-regulate the expression of endogenous IDO enzymes; endogenous in cells; host or cells: HeLa cells stimulated with human IFN-γ
T2 sequence (P14902 whole entry): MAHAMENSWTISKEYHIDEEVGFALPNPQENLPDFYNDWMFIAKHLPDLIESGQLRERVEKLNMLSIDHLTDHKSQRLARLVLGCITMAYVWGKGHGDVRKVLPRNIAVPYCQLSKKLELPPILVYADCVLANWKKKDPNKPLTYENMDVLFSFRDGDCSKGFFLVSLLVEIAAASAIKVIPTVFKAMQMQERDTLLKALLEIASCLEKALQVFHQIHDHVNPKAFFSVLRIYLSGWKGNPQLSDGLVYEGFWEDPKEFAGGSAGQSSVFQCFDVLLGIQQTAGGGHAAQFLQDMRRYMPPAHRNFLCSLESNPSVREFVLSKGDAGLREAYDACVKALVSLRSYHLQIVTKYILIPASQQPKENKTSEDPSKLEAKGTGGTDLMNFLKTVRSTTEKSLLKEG
From the text: In the present disclosure, IFN-γ-induced IDO enzyme expression in HeLa cells were used as a model to detect the IDO enzymatic inhibitory activity of the compound at the cellular level. HeLa cells are human cervical cancer cell lines and can up-regulate the expression of endogenous IDO enzymes under the induction of human IFN-γ. The cell supernatant can be subjected to detection of the enzyme-catalyzed product kynurenine by adding the substrate L-tryptophan to the cell culture solution. […] Recombinant human IFN-γ cytokine purchased from Sangon Biotech, Phenol red-free DMEM for cell culture purchased from Gibco. […] The cells were further cultured for 48 hours and detected. (2) 200 μl of the supernatant from the culture well was pipetted, 40 μl of a pre-formulated 30% (w/v) trichloroacetic acid solution was added, allowed to react at 65° C. for 20 minutes, and then centrifuged at 12,000 rpm for 15 minutes. (3) 100 μl of the supernatant after centrifugation was pipetted and added into a 96-well plate, an equal volume of 2% p-dimethylaminobenzaldehyde in glacial acetic acid was added, and they were mixed well and allowed to stand at room temperature for 10 minutes. (4) A microplate reader (ELX800NB) was used to detect the color signal of each well, and the detection wavelength was 492 nm.

T1 sequence (P14902 whole entry): as above

Structure (SMILES)	inhibition at 0.2 µM [1] [%]	inhibition at 1 µM [2] [%]
CN(CC(=O)N1CCC(C(O)CC2c3ccccc3-c3cncn32)CC1)c1cccc(Cl)c1 (stereo not shown) [Example 63]	90	99
O=C(COc1ccc(F)c(Cl)c1)N1CCC(C(O)CC2c3ccccc3-c3cncn32)CC1 (stereo not shown) [Example 39, 2-(3-chloro-4-fluorophenoxy)-1-(4-(1-hydroxy-2-(5H-imidazo[5,1-a]isoindol-5-yl)ethyl)piperidin-1-yl)ethyl-1-one]	90	98
O=C(COc1ccc(F)cc1)N1CCC(C(O)CC2c3ccccc3-c3cncn32)CC1 (stereo not shown) [Example 43, 2-(4-fluorophenoxy)-1-(4-(1-hydroxy-2-(5H-imidazo[5,1-a]isoindol-5-yl)ethyl)piperidin-1-yl)ethyl-1-one]	83	89

Continued, values first:

inhibition at 0.2 µM [1] [%]	inhibition at 1 µM [2] [%]	Structure (SMILES)
73	91	CN(CC(=O)N1CCC(C(O)CC2c3ccccc3-c3cncn32)CC1)c1ccc(F)cc1 (stereo not shown) [Example 72, 2-((4-fluorophenyl)(methyl)amino)-1-(4-(1-hydroxy-2-(5H-imidazo[5,1-a]isoindol-5-yl)ethyl)piperidin-1-yl)ethyl-1-one]
75	74	CN(CC(=O)N1CCC(C(O)CC2c3ccccc3-c3cncn32)CC1)c1ccc2ncccc2c1 (stereo not shown) [Example 113, 1-(4-(1-hydroxy-2-(5H-imidazo[5,1-a]isoindol-5-yl)ethyl)piperidin-1-yl)-2-(methyl(quinolin-6-yl)amino)ethyl-1-one]

Source: patent publication US10604529B2, “Fused imidazole compound having indoleamine 2,3-dioxygenase inhibitory activity” (SHENZHEN CHIPSCREEN BIOSCIENCES CO., LTD., priority 2016, dated 2020)
